# Literature values as cited in US20070116778A1 (priority 2005, published 2007).
# Tests used:
# [1] = tested on: Neisseria gonorrhoae
# [2] = tested on: HIV; conditions: human, in vivo
smiles,measurement,setting,value
CCCCCCCCCCCC(=O)OCC(O)CO (stereo not drawn) [Monolaurin],effect on the pathogen,[1],dissolves the outer lipid membrane and interferes with transcriptinase production
same,patients with reduced viral load,[2],8 patients
same,side effects,[2],without any side effects
